In assay [1] the test system is transcriptional activity through STAT6 activation by IL4 stimulation. Put plainly: Test of inhibitory action in mouse air pouch model introduced with E9 cells (blood PLAP activity after IL4 stimulation). To be noted: orally administered 20 mg/kg, 1 hour before IL4 injection into air pouch; plasma 24 hours after IL4. It is filed as in vivo, CDF1 mouse. The method, then: 5% cytodex3 (Amersham Bioscience, 17-0485-01) solution and 2% CMC solution (Daiichi Kogyo Seiyaku Co., Ltd.) were prepared. More specifically, 5 g of cytodex3 was suspended in 100 ml of PBS (SIGMA, R8537) and sterilized by autoclaving. On the other hand, the 2% CMC solution was prepared by adding 2 g of CMC in 100 ml of PBS while stirring with a stirrer bar and followed by sterilization by autoclaving.
Then, E9 cells were subjected to trypsin-EDTA treatment to be removed from the wall of the vessel and the cells were suspended in DMEM to make 1.0×10^6 cells/ml. 0.2 g of cytodex3 was mixed with 1.0×10^7 cells/ml of E9 cells. More specifically, 4 ml of 5% cytodex3 solution was mixed with 10 ml of 1.0×10^6 cells/ml of cell suspension. Then, the cell/cytodex3 suspension was inoculated on a non-tissue culture plate (IWAKI, SH90-15) and cultured in a CO2 incubator. […]
After 24 hours, orbital blood drawing was conducted using a heparin-treated Terumo hematocrit capillary tube (TERUMO Corporation, VC-H075H). […] To inactivate endogenous alkaline phosphatase, the plasma sample was treated in a hot water bath at 65° C. for 10 minutes and then PLAP activity derived from E9 cells in the plasma was measured. […] Subsequently, while shielding light, the mixture was incubated at room temperature for 1 hour, followed by measurement of intensity of chemiluminescence using a plate reader (Perkin Elmer, ARVO).

The test system is the same in assay [2]. Particulars: in vitro; cited from earlier work.
In assay [3] the test system is E9 cell (HEK293 with STAT6-PLAP reporter plasmid and STAT6-expression vector plasmid). Put plainly: PLAP activity in culture supernatant of cells stably expressing STAT6-PLAP reporter plasmid and STAT6 expression vector plasmid upon human IL4 stimulation. It is filed as cell-based. Particulars: human IL4 final concentration 1 ng/ml, next day. As for the experimental part: More specifically, the cloned cell was subjected to trypsin-EDTA treatment to be removed from the wall of the vessel and suspended in DMEM and cells were inoculated on a 96-well cell culture plate to be 1.0×10^4 cells/190 μl/well. On the next day, 10 μl of 20 ng/ml human IL4 (Calbiochem, 407635) was added to the culture medium at a final concentration of 1 ng/ml. On the next day, the culture supernatant was recovered and the PLAP activity in the culture supernatant was measured.
More specifically, 100 μl of PLAP buffer (0.28 M Na2CO3—NaHCO3 pH 10.0, 8 mM MgSO4) was added to a black plate for ELISA (Sumitomo Bakelite Co., Ltd., No. MS-8496K), and 10 μl of the culture supernatant which had been treated in a hot water bath at 65° C. for 10 minutes was added thereto. Then, 50 μl of Lumi-Phos 530 (Lumigen, Inc.) was added, followed by mixing. Subsequently, while shielding light, the mixture was incubated at room temperature for 1 hour, followed by measurement of intensity of chemiluminescence using a plate reader (Perkin Elmer, ARVO). […] Hereinafter, this clone is named E9 cell.

Assay [4] concerns E9 cells (STAT6-PLAP reporter). Put plainly: Mouse air pouch model introduced with E9 cells: plasma PLAP activity upon human IL4 stimulation. Particulars: 1 ml of 3 ng/ml human IL4 injected into air pouch, plasma after 24 hours. Type of assay: in vivo, CDF1 mouse. As for the experimental part: 5% cytodex3 (Amersham Bioscience, 17-0485-01) solution and 2% carboxymethylcellulose (hereinafter, also referred to as CMC) solution (Daiichi Kogyo Seiyaku Co., Ltd.) were prepared. More specifically, 5 g of cytodex3 was suspended in 100 ml of PBS (SIGMA, R8537) and sterilized in an autoclave. On the other hand, the 2% CMC solution was prepared by adding 2 g of CMC in 100 ml of PBS while stirring with a stirrer bar, followed by sterilization in the autoclave.
Then, the E9 cells were subjected to trypsin-EDTA treatment to be removed from the wall of the vessel and the cells were suspended in DMEM to be 1.0×10^6 cells/ml. 0.2 g of cytodex3 was mixed with 1.0×10^7 cells/ml E9 cells. More specifically, 4 ml of 5% cytodex3 solution was added to 10 ml of 1.0×10^6 cells/ml cell suspension. […]
Under anesthesia with diethyl ether (WAKO, 055-01155), 3 ml of air was introduced under the skin on the back of a CDF1 mouse (Charles River Japan) using a 5-ml syringe with a 27 G needle to make an air pouch. […] To inactivate endogenous alkaline phosphatases, the plasma sample was treated in a hot water bath at 65° C. for 10 minutes and then the PLAP activity derived from E9 cells in the plasma was measured. […] Subsequently, while shielding light, the mixture was incubated at room temperature for 1 hour, followed by measurement of intensity of chemiluminescence using a plate reader (Perkin Elmer, ARVO).

The values below come from US20080077999A1, “Using Nonhuman Animal Model, Method of Measuring Transcription Activity Method of Measuring Cell Quantity and Method of Measuring Tumor Volume” (Eisai R&D Management Co., Ltd., priority 2004, published 2008).

Consider `Cl.Cl.Cl.Fc1ccc(-c2n[nH]cc2-c2ccc3ncc(-c4nccs4)n3c2)cc1` [test compound, 2-(6-[3-(4-fluorophenyl)-1H-4-pyrazolyl]imidazo[1,2-a]pyridin-3-yl)-1,3-thiazole trihydrochloride], for which the “suppression of the PLAP activity activated by the IL4 stimulation as compared with the control group” value in assay [1] came to 94.1%. In assay [2], the “inhibition of transcriptional activity through STAT6 activation by IL4 stimulation” value was “inhibit transcriptional activity through STAT6 activation”.

B1: IL4: human IL4 (Calbiochem, 407635), used as stimulus of STAT6-PLAP reporter cells (protein, UniProt P05112 25-153, looked up)
Interleukin-4: HKCDITLQEIIKTLNSLTEQKTLCTELTVTDIFAASKNTTEKETFCRAATVLRQFYSHHEKDTRCLGATAQQFHRHKQLIRFLKRLDRNLWGLAGLNSCPVKEANQSTLENFLERLKTIMREKYSKCSS
On to B1, for which the “PLAP activity in culture supernatant upon IL4 stimulation compared to non-stimulating condition” value in assay [3] is given as “higher PLAP activity was induced”. Moreover, the “PLAP activity secreted in blood upon IL4 stimulation” value in assay [4] was “remarkable increase of PLAP activity”.
